The test system of assay [1] is mice in the tail suspension test. Briefly: Tail suspension test in mice. The format is in vivo, Kunming mice. To be noted: mean ± SD. The text has this: Fifty male Kunming mice, 9-10 weeks old and weighing 22-24 g, were randomly divided by weight into 5 groups and administered by gavage a dose of one of the drugs listed in Table 6. Sixty minutes later, mice were individually suspended by the tail (1 cm from the tip) to a horizontal 1 cm-diameter PVC bar by use of the adhesive tape. The tail of mouse was thereby prevented from twisting. The PVC bar was placed overhead to suspend the mouse upside-down, keeping the head 5 cm above the table surface. To avoid interference, each mouse was partitioned by clapboard. […] T-test was used for statistical analysis.
Fifty male Kunming mice, 8-9 weeks old and weighing 18-22 g, were randomly divided by weight into 5 groups, and administered by gavage a dose of one of the drugs listed in Table 7 for 10 consecutive days. Sixty minutes after the last dose, mice were individually suspended by the tail (1 cm from the tip) from a horizontal 1 cm-diameter PVC bar using the adhesive tape. The tail of the mouse was thereby prevented from twisting. The PVC bar was placed overhead to suspend the mouse upside down, keeping the head 5 cm above the table surface. To avoid interference, each mouse was partitioned by clapboard.

Another assay concerns 5-HT Re-uptake. Briefly: 5-HT re-uptake test ([14C]-5-HT, hypothalamus homogenate). In kind it is biochemical, SD rats. Here is the method:
Eight male SD rats were decapitated. The hypothalamuses were rapidly removed, weighed and homogenized in a 9-fold volume of 0.32 mol/L ice-cold sucrose solution, and centrifuged at a rate of 3420 rpm for 10 minutes at 0-4° C. […] Ten tubes were prepared for each group and all tubes were incubated at 37° C. for 5 minutes. […] CO2 chamber for 5 minutes, followed by centrifugation at a rate of 7,480 rpm for 10 minutes. The supernatant of the solution was put into a scintillation vial for counting after adding 10 ml scintillation fluid (scintillation was performed 3 times). The re-uptake of serotonin was calculated by the difference in DMP at 37° C. and 0° C.

The test system of assay [2] is Reserpine-Induced Ptosis in Mice. As to the kind of experiment: Inhibition of reserpine-induced ptosis. In kind it is in vivo, Kunming mice. The conditions noted are these: reserpine 2 mg/kg i.p., 10 mice per group. How it is done:
Fifty male Kunming mice, 8-9 weeks old and weighing 18-22 g, were randomly divided by weight into 5 groups, and administered by gavage a single dose of one of the drugs listed in Table 3 for 10 consecutive days. Sixty minutes after the last dose, mice were given an i.p. injection of reserpine (2 mg/kg). After 60 minutes, mice were put on a bracketed stand and observed for 2 minutes. The number of animals with at least one upper eyelid closed was recorded. Fisher's exact test was used for statistical analysis.

In assay [3] the test system is mice in the forced swimming test. Briefly: Forced swimming test using mice. The format is in vivo, Kunming mice. To be noted: mean ± SD. Here is the method:
Fifty male Kunming mice, 9-10 weeks old and weighing 22-24 g, were randomly divided by weight into 5 groups and administered by gavage a single dose of one of the drugs listed in Table 6. Sixty minutes later, the mice were placed in individual beakers (2500 ml, 20 cm×14 cm in diameter), which had previously been filled with water (25° C.) up to 10 cm from the bottom. The duration of immobility in the last 4 minutes in the 6-min swimming test was recorded (the term immobility indicates no movement except for respiration). T-test was used for statistical analysis.
Fifty male Kunming mice, 8-9 weeks old and weighing 18-22 g, were randomly divided by weight into 5 groups and subjected to gavage once a day for 10 consecutive days as shown in Table 7. Sixty minutes after the last dose, the mice were individually placed in beakers (2500 ml, 20 cm×14 cm in diameter), which had previously been filled with water (25° C.) up to 10 cm from the bottom. The cumulative time of immobility in the last 4 minutes of a total swimming time of 6 minutes was recorded (the term immobility indicates no movement except for respiration). T-test was used for statistical analysis.

[4] abbreviates: multiple dose 18 mg/kg × 10 i.g.

Marks after values point to notes of the source that are not given here.

Turning to `CC(C)=CCC[C@](C)(O)[C@H]1CC[C@]2(C)[C@@H]1[C@H](O)C[C@@H]1[C@@]3(C)CC[C@H](O)C(C)(C)[C@@H]3CC[C@]12C` [20(S)-protopanaxadiol], the “Cumulative immobility within 6 minutes” value in assay [1] (single dose 3.75 mg/kg × 1 i.g.) was found to be 95.00 ± 36.21 s; in assay [1] (single dose 7.5 mg/kg × 1 i.g.), 92.30 ± 32.93 s. The Amount of re-uptake in the assay with 5-HT Re-uptake (concentration 0.01 μg/ml) turned out to be 4377.8 ± 479.7 dmp; in the assay on 5-HT Re-uptake (concentration 0.1 μg/ml), 4117.3 ± 532.0 dmp; in the assay on 5-HT Re-uptake (concentration 1 μg/ml), 3963.5 ± 459.4 dmp; with 5-HT Re-uptake (concentration 10 μg/ml) it was 3696.4 ± 392.9 dmp. Moreover, the Inhibitory rate in the assay with 5-HT Re-uptake (concentration 0.01 μg/ml) worked out at 11.7%; in the assay on 5-HT Re-uptake (concentration 0.1 μg/ml), 17.0%; in the assay with 5-HT Re-uptake (concentration 1 μg/ml), 20.1%; in the assay with 5-HT Re-uptake (concentration 10 μg/ml), 25.5%. Besides, the “Number of animals with at least one upper eyelid closed” value in assay [2] (3.75 mg/kg × 10 i.g.) came out at 9; in assay [2] (7.5 mg/kg × 10 i.g.), 8.
As for `CNCCC(Oc1ccc(C(F)(F)F)cc1)c1ccccc1` (centres unmarked) [Fluoxetine, reference compound], the “Cumulative immobility within 4 minutes” value in assay [3] (setting [4]) worked out at 81.50 ± 36.77 s. Moreover, the results for the “Cumulative immobility within 6 minutes” value in assay [3] (single dose 18 mg/kg × 1 i.g.), in assay [1] (setting [4]) and in assay [1] (single dose 18 mg/kg × 1 i.g.) were 86.20 ± 32.56 s, 59.10 ± 35.40 s and 70.90 ± 23.11 s, respectively. In assay [2] (18 mg/kg × 10 i.g.), the “Number of animals with at least one upper eyelid closed” value is reported as 4*.

Source of the values: patent publication US8148354B2, “Use of 20(S)-protopanaxadiol in manufacture of antidepressants” (priority 2006, dated 2012).
